Numbered stars: 1 amine (or outer) side, 2 acyl side, 3 side chain; on linkers, the order of the positions; unused ones are H or OH. Peptide text beside a SMILES is read from it. Suc = O=C(CCC(=O)[*:2])[*:1]
Target: T1, ZAP-70 (Homo sapiens, UniProt P43403)
T1 construct: A nucleic acid encoding full-length human ZAP-70 (GenBank #L05148); hexa-histidine (N); made in house; host or cells: Sf9 insect cells (baculovirus)
T1 sequence (P43403 1-619): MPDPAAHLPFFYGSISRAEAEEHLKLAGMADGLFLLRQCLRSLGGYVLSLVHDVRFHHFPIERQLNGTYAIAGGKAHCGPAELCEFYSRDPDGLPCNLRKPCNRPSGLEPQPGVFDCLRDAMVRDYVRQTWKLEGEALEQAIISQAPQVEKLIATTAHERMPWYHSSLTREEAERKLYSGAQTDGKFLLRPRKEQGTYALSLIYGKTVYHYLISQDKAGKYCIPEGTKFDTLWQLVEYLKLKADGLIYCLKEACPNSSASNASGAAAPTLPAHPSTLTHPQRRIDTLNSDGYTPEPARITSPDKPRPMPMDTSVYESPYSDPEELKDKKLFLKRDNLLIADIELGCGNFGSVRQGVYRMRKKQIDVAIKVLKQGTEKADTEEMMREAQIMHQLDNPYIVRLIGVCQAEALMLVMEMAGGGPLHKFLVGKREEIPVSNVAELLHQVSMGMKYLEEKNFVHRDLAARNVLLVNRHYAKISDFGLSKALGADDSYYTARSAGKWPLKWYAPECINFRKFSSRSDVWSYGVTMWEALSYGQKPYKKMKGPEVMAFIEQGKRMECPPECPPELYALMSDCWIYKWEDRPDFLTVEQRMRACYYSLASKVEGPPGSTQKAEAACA
Assay: Phosphorylation of compounds of formula I by ZAP-70 measured in a competitive assay (Example C5)
Type: biochemical
Settings: non-biotinylated peptide competing with biotinylated SEQ ID NO:12; Lck-activated ZAP-70, PP2 added, 4 hours at RT; read-out: IC50, inhibition of the phosphorylation of SEQ ID NO:12 by ZAP-70
Procedure: 80 nM ZAP-70 are incubated with 80 nM Lck and 4 μM ATP in ZAP-70 kinase buffer for 1 hour at RT in a siliconized polypropylene tube. Then, the selective Lck inhibitor PP2 (see Example C2) is added (final concentration 1.2 μM) and incubated for further 10 min.
Ten μl of this solution is mixed with 10 μl biotinylated compound of e.g. SEQ ID NO:12 (1 μM) and 20 μl of the non-biotinylated peptides of compounds of formula I, e.g. by SEQ ID NO:21, SEQ ID NO:15, SEQ ID NO:16 or SEQ ID NO:17 (serial dilution 0.28 to 200 μM) and incubated for 4 hours at RT. Termination of the kinase reaction, detection phase and determination of fluorescence is performed as described in Example C1.

IC50, 0.6 to 21 µM:
CC(C)C[C@H](NC(=O)[C@H](CC(N)=O)NC(=O)[C@H](CCC(=O)O)NC(=O)[C@H](Cc1ccc(O)cc1)NC(=O)[C@H](CC(=O)O)NC(=O)CCC(=O)O)C(N)=O [SEQ ID NO:22, HOOC-CH2-CH2-CO-Asp-Tyr-Glu-Asn-Leu-NH2] (Suc-DYENL-NH2)
CC(C)C[C@H](NC(=O)[C@H](CC(N)=O)NC(=O)[C@H](CCC(=O)O)NC(=O)[C@H](Cc1ccc(O)cc1)NC(=O)[C@H](CC(=O)O)NCC(=O)O)C(N)=O [SEQ ID NO:23, HOOC-CH2-Asp-Tyr-Glu-Asn-Leu-NH2]
CC(C)C[C@H](NC(=O)[C@H](Cc1ccccc1)NC(=O)[C@H](CCC(=O)O)NC(=O)[C@H](Cc1ccc(O)cc1)NC(=O)[C@H](CC(=O)O)NC(=O)CCC(=O)O)C(N)=O [SEQ ID NO:24, HOOC-CH2-CH2-CO-Asp-Tyr-Glu-Phe-Leu-NH2] (Suc-DYEFL-NH2)
Ac-DYENL-NH2 [SEQ ID NO:17, acetyl-Asp-Tyr-Glu-Asn-Leu-NH2]
Ac-DYENLQELN-OH [SEQ ID NO:15, acetyl-Asp-Tyr-Glu-Asn-Leu-Gln-Glu-Leu-Asn-OH]
Ac-EEGAPDYENL-NH2 [SEQ ID NO:16, acetyl-Glu-Glu-Gly-Ala-Pro-Asp-Tyr-Glu-Asn-Leu-NH2]
Ac-EEGAPDYENLQELN-OH [SEQ ID NO:21, acetyl-Glu-Glu-Gly-Ala-Pro-Asp-Tyr-Glu-Asn-Leu-Gln-Glu-Leu-Asn-OH]

From patent publication US20100168031A1, “Lat peptides and their use in assays for identifying immunosuppressants” (priority 2000, published 2010)
